Experimental data published in patent publication US9233121B2, “Compositions and methods for the treatment of cancer” (BOARD OF REGENTS OF THE UNIVERSITY OF NEBRASKA, priority 2011, dated 2016).

Columns and labels:
Assay type in all cases: cell-based, human
SW1990-SP cells [1] = assay: hPaf1/PD2 knockdown with gemcitabine treatment in SP cells: phenotype, viability, FACS apoptosis
Procedure: The human hPaf1/PD2 region was targeted with specific siRNA (sequence 5′-[…]-3′; SEQ ID NO: 1). Synthetic sense and antisense oligonucleotides (Dharmacon, Lafayette, Colo.) were annealed in 100 mM potassium acetate, 30 mM HEPES-KOH (pH 7.4), and 2 mM magnesium acetate for one minute at 90° C. and one hour at 37° C., and frozen. Oligonucleotides were transfected into cells with TransIT-TKO (Mirus, Madison, Wis.) in accordance with the supplier's recommendations. Gemcitabine (6 μM) treatment was done for 20 days.
Following the previous drug sensitivity experiment, hPaf1/PD2 was transiently knocked down using RNAi oligos. The knockdown was carried out in vitro under stem cell specific culture condition.

SW1990 NSP cells = assay: Drug sensitivity: gemcitabine treatment of NSP cells; conditions: 6.0 μM gemcitabine, several days
Procedure: (§1) Both SP and NSP cells were cultured in gelatinized tissue culture dishes in stem cell specific medium containing Dulbecco's Modified Eagle's Medium (DMEM; GIBCO) and F12 supplemented with 10% ES specific fetal bovine serum (FBS; Invitrogen), L-glutamine (GIBCO), 100 nM nonessential amino acids (GIBCO), 1000 U/ml LIF (Sigma), bFGF (Invitrogen) and Pen/Strp. Two different conditions were maintained for both SP and NSP cells. First, both SP and NSP cells were maintained in the above-mentioned stem cell specific media and in another condition both the cells were maintained for a few days in 10% FBS containing DMEM media which was replaced with stem cell specific medium. The SP cells have also been grown in stem cell specific media and NSP cells have been grown in 10% FBS containing DMEM media.
(§2) The human hPaf1/PD2 region was targeted with specific siRNA (sequence 5′-[…]-3′; SEQ ID NO: 1). Synthetic sense and antisense oligonucleotides (Dharmacon, Lafayette, Colo.) were annealed in 100 mM potassium acetate, 30 mM HEPES-KOH (pH 7.4), and 2 mM magnesium acetate for one minute at 90° C. and one hour at 37° C., and frozen. […]
(§3) Tumor relapse occurs in cancer patients due to the important phenomena known as drug resistance. […] The expression of ALDH1 was analyzed in the gemcitabine treated SW1990-SP cells.

hPaf1/PD2 = assay: Western blot of hPaf1/PD2 in gemcitabine treated SP cells; conditions: gemcitabine (6 μM) treated SW1990-SP cells compared to untreated SP cells
Procedure: (§4) SP and NSP cells were processed for protein extraction and western blotting using standard procedures. Briefly, the cells were washed twice in PBS and lysed in RIPA buffer (100 mM Tris, 5 mM EDTA, 5% NP40; pH8.0) containing protease inhibitors (1 mM phenyl-methyl sulphonyl fluoride, 1 μg/ml aprotinin, 1 μg/ml leupeptin) and kept at 4° C. and supernatant were collected. Resolved proteins were transferred on to the PVDF membrane. After a quick wash in PBST (Phosphate buffered saline and 0.1% Tween 20), the membranes were blocked in 5% nonfat dry milk in PBS for at least 1 hour and then incubated with primary antibodies (anti-hPaf1/PD2, anti-ALDH1, anti-CD133, anti-CD44, anti-Shh and anti-β-actin) (diluted in 3% BSA in PBS) for overnight at 4° C. Then the membrane was washed (3×10 minutes) in PBST at room temperature and probed with 1:2000 diluted horseradish peroxidase-conjugated anti-mouse or anti-rabbit secondary antibodies for 1 hour at room temperature and washed 5×10 minutes with PBST. The signal was detected with an ECL chemiluminescence kit (Amersham Bioscience, UK).

ALDH1 = assay: Western blot of ALDH1 in gemcitabine treated SP cells; conditions: gemcitabine (6 μM) treated SW1990-SP cells compared to non-treated SP cells
Procedure: as §4, §3

SW1990-SP cells [2] = assay: Drug sensitivity: gemcitabine treatment of SP cells; conditions: 6.0 μM gemcitabine, 4, 10 and 20 days
Procedure: as §1, §2, §3

`Nc1ccn([C@@H]2O[C@H](CO)[C@@H](O)C2(F)F)c(=O)n1` [gemcitabine] was tested. Which “percentage of cell death (FACS-apoptosis analysis, PI staining)” value (SW1990-SP cells [1]; hPaf1/PD2 knockdown SP cells with gemcitabine treatment compared to control cells) did it give?
The value was “increased percentage of cell death”.

And the “viability of SP cells” value (SW1990-SP cells [1]; seven days gemcitabine with transient knockdown (72 hours) of hPaf1/PD2 in SW1990-SP cells)?
The value was “decreased the viability of SP cells”.

And the “cell death of NSP cells on drug treatment” value (SW1990 NSP cells)?
The value was “Cell death was observed”.

And the “expression of hPaf1/PD2 (western blot)” value (hPaf1/PD2)?
Its value is “maintained”.

And the “expression of ALDH1 (western blot)” value (ALDH1)?
Its value is “significantly elevated expression of ALDH1”.

What about the “growth of SP cells on drug treatment” value (SW1990-SP cells [2]) of the same compound?
The value was “continued to grow even after 4, 10 and 20 days of treatment”.
